Assay results taken from the supplement of paper PMC10307832.

How the values were obtained:
Experiment in all cases: relative viability (nuclei count vs DMSO), 5 days (fraction); higher = more cells survive
[1] = compound: COc1cc2nc(N3CCCN(C)CC3)nc(NC3CCN(Cc4ccccc4)CC3)c2cc1OC + C[C@@H](Oc1cc(-c2cnn(C3CCNCC3)c2)cnc1N)c1c(Cl)ccc(F)c1Cl [Crizotinib] (partner 1 µM)
In short: (§1)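 One day after seeding in 1536-well plates, lung cancer cell lines were dosed by pin tool. Dosing was either single-drug or a fixed anchor-drug dose plus five library-drug doses (not always all listed) in √10 steps. After 5 days, nuclei were stained in one fix-and-stain step and counted on 4× images, and relative viability is the nuclei count of treated wells over that of vehicle wells, given as the median of duplicate plates.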

[2] = compound: COc1cc2nc(N3CCCN(C)CC3)nc(NC3CCN(Cc4ccccc4)CC3)c2cc1OC + C[C@]1(O)C[C@@H](c2nc(-c3ccc4ccc(-c5ccccc5)nc4c3)c3c(N)nccn32)C1 [Linsitinib] (partner 1 µM)
In short: as §1

AZD6482 + Decitabine = compound: Cc1cc([C@@H](C)Nc2ccccc2C(=O)O)c2nc(N3CCOCC3)cc(=O)n2c1 [AZD6482] + Nc1ncn([C@H]2C[C@H](O)[C@@H](CO)O2)c(=O)n1 [Decitabine] (partner 2 µM)
In short: as §1

AZD6482 + Palbociclib = compound: Cc1cc([C@@H](C)Nc2ccccc2C(=O)O)c2nc(N3CCOCC3)cc(=O)n2c1 [AZD6482] + CC(=O)c1c(C)c2cnc(Nc3ccc(N4CCNCC4)cn3)nc2n(C2CCCC2)c1=O [Palbociclib] (partner 0.5 µM)
In short: as §1

Cell Line	relative viability ([1]; first compound 0.2 µM)	relative viability ([1]; first compound 0.6325 µM)	relative viability ([1]; first compound 2 µM)	relative viability ([1]; first compound 6.325 µM)	relative viability ([2]; first compound 0.2 µM)	relative viability ([2]; first compound 0.6325 µM)	relative viability ([2]; first compound 2 µM)	relative viability ([2]; first compound 6.325 µM)	relative viability (AZD6482 + Decitabine; first compound 0.08 µM)	relative viability (AZD6482 + Decitabine; first compound 0.253 µM)	relative viability (AZD6482 + Decitabine; first compound 0.8 µM)	relative viability (AZD6482 + Decitabine; first compound 2.53 µM)	relative viability (AZD6482 + Decitabine; first compound 8 µM)	relative viability (AZD6482 + Palbociclib; first compound 0.08 µM)	relative viability (AZD6482 + Palbociclib; first compound 0.253 µM)	relative viability (AZD6482 + Palbociclib; first compound 0.8 µM)	relative viability (AZD6482 + Palbociclib; first compound 2.53 µM)	relative viability (AZD6482 + Palbociclib; first compound 8 µM)
NCI-H23	0.417	0.556	0.59	0.546	0.562	0.733	0.833	0.53	0.309	0.288	0.32	0.312	0.304	0.471	0.421	0.487	0.396	0.325
NCI-H322M	0.873	1.01	0.973	0.915	0.826	0.887	0.939	0.901	0.657	0.617	0.674	0.537	0.603	0.447	0.486	0.476	0.424	0.39
NCI-H358	0.495	0.642	0.903	0.639	0.837	0.66	0.741	0.52	0.246	0.218	0.237	0.185	0.189	0.149	0.121	0.134	0.127	0.115
NCI-H441	0.656		0.59	0.701	0.527		0.515	0.553	0.254	0.198	0.295		0.214	0.248	0.246	0.215		0.182
NCI-H460	0.833	0.878	0.893	0.313	0.73	0.792	0.762	0.267	0.445	0.38	0.618	0.452	0.395	0.124	0.138	0.269	0.135	0.129
NCI-H520	0.714	0.664	0.852	0.214	1.13	0.931	1.1	0.747	0.418	0.331	0.344	0.198	0.244	0.123	0.157	0.179	0.146	0.15
NCI-H647	1.01	0.973	0.968	0.466	1.17	1.03	1.14	0.599	0.374	0.406	0.302	0.236	0.361	0.305	0.293	0.309	0.241	0.195
NCI-H650	0.734	0.589	0.841	0.733	0.866	0.77	0.943	0.534	0.318	0.292	0.378	0.33	0.317	0.364	0.291	0.276	0.237	0.271
NCI-H661	0.995	0.9	1.24	0.922	0.553	0.56	0.779	0.634	0.557	0.569	0.571	0.498	0.422	0.41	0.43	0.41	0.387	0.364
NCI-H727	0.757	0.752	1.13	0.592	0.316	0.277	0.369	0.221	0.951	0.85	1.02		0.798	0.63	0.63	0.811		0.532
NCI-H838	0.81	0.878	0.873	0.828	1.07	0.936	1.11	0.85	0.436	0.442	0.433	0.428	0.364	0.167	0.203	0.204	0.167	0.163
NCI-H1355	1.08	1.17	1.01	0.993	0.881	0.784	0.831	0.808	0.346	0.362	0.363	0.341	0.35	0.294	0.374	0.32	0.279	0.286
NCI-H1437	0.901	0.866	1.02	0.879	1.06	0.956	1.11	0.891	0.572	0.523	0.607	0.572	0.407	0.353	0.319	0.36	0.316	0.24
NCI-H1651	0.862	0.849	0.896	0.859	1.02	0.903	1.09	0.893	0.627	0.429	0.572	0.446	0.482	0.485	0.493	0.508	0.486	0.496
NCI-H1666	0.969	0.958	0.981	0.886	0.866	0.919	0.783	0.675	0.72	0.687	0.715	0.645	0.642	0.637	0.576	0.722	0.638	0.681
NCI-H1734	0.66	0.602	0.687	0.661	0.964	0.811	0.832	0.83	0.508	0.476	0.463	0.407	0.435	0.301	0.333	0.346	0.298	0.272
NCI-H1755	0.868	0.792	0.919	0.814	0.974	0.982	0.946	0.932	0.709	0.733	0.749	0.668	0.6	0.425	0.416	0.443	0.444	0.379
NCI-H1792	0.994	1.04	0.975	1.08	0.61	0.512	0.496	0.598	0.519	0.479	0.549	0.356	0.476	0.593	0.611	0.648	0.561	0.512
